In US5674881A, “Quaternary ammonium salts of aromatic amine compounds, their preparation and pharmaceutical compositions in which they are present” (Elf Sanofi, priority 1992, dated 1997):

Assays:
[1] = molecular target: T1, substance P receptors on rat cortex (Rattus norvegicus, UniProt P14600); assay: antagonism of the binding of substance P to its receptor, rat cortex
T1 construct: in tests performed on rat cortex; from tissue; host or cells: rat cortex
Description: (§1) Thus the compounds according to the invention antagonize the binding of substance P to its receptor with a Ki of between 0.1 and 800 nM in tests performed on rat cortex and with a Ki of between 0.01 and 30 nM in tests performed on the lymphoblastic cell line IM9.

[2] = tested on: substance P; assay: substance P antagonism
[3] = tested on: neurokinin receptors; assay: affinity for the neurokinin receptors; format: binding
[4] = molecular target: T2, substance P receptors on human cells of the IM9 line (Homo sapiens, UniProt P25103); assay: antagonism of the binding of substance P to its receptor, lymphoblastic cell line IM9
T2 construct: in tests performed on the lymphoblastic cell line IM9; endogenous in cells; host or cells: IM9 (human lymphoblastic cell line)
Description: as §1

[5] = molecular target: substance P receptors (rat receptor); conditions: 3H-SP binding on rat cortical membranes, Snider et al. 1991; cited from earlier work
[6] = molecular target: substance P receptors (bovine receptor); conditions: 3H-SP binding on bovine caudal membrane, Snider et al. 1991; cited from earlier work
[7] = tested on: substance P receptors, U373 MG cells; conditions: substance P binding, Gitter et al. 1991; cited from earlier work
[8] = tested on: substance P receptors, IM9 cells; conditions: substance P binding, Gitter et al. 1991; cited from earlier work
[9] = tested on: NK1 receptor; conditions: agonist; D. Regoli 1988 and 1989; cited from earlier work

T2 sequence (P25103 whole entry): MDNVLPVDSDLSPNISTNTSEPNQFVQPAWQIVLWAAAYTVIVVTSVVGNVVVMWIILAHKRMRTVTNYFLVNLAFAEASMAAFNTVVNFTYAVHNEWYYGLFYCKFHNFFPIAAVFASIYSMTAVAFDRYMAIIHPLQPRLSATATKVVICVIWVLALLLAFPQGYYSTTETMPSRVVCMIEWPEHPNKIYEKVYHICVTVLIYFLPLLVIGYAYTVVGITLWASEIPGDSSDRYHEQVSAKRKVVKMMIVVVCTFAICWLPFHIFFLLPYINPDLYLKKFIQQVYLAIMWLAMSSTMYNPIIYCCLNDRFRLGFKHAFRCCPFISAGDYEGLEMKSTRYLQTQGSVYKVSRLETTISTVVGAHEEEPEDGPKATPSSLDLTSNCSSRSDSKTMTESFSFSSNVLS
T1 sequence (P14600 whole entry): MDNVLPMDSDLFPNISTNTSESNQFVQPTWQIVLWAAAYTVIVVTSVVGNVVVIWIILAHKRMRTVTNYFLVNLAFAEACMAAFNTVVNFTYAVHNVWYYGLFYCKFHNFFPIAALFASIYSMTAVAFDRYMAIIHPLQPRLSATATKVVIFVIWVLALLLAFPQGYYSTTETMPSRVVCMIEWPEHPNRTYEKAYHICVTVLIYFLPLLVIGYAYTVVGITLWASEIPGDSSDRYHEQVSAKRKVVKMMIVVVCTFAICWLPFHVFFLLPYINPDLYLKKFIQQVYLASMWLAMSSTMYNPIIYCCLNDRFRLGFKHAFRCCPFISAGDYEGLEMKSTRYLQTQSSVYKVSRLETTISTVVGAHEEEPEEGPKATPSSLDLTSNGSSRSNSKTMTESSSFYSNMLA

CC(C)Oc1cccc(CC(=O)N(C)CC(CCN2CCC(c3ccccc3)CC2)c2ccc(Cl)c(Cl)c2)c1 (stereo not drawn) [(I'b), N-Methyl-N-[4-(4-phenylpiperidin-1-yl)-2-(3,4-dichlorophenyl)butyl]-3-isopropoxyphenylacetamide]
Ki [1]: 0.3 to 0.6 nM | substance P antagonism [2]: powerful substance P antagonists | affinity for the neurokinin receptors [3]: very high affinity | Ki [4]: 0.3 to 0.6 nM

COc1ccccc1CN[C@H]1C2CCN(CC2)[C@H]1C(c1ccccc1)c1ccccc1 [CP 96,345]
Ki [5]: 240 nM | Ki [6]: 3 nM | Ki [7]: 0.4 nM | Ki [8]: 0.4 nM

[Sar^9, Met-(O2)^11 ]-SP
selectivity for the NK1 receptor [9]: selective
